A short description of assay [1]: Force for the extension of individual damaged hairs by 15% before and after treatment (DiaStron Mtt670). On the set-up: species or system human. The following applies: hair rinse A with 2.0% by weight of compound, pH 5, 30 min immersion, permanently waved and bleached Euro hair, measured wet, difference of 15% extension forces after and before treatment, at least 30 measurements. As for the experimental part: Euro hair (hair from Europeans), left natural.
Preliminary Damage to the Hair
1×each permanent waving and bleaching using commercially available products.
Treatment of the damaged hair:
The damaged hair was treated with the exemplary formulations.
For each test formulation, 30 damp individual hairs were measured. The experimental procedure was as follows:
1. The predamaged hairs were wetted with water and using the fully automatic device Mtt670 from DiaStron the force was measured which was necessary for 15% extension.
2. For recovery, the hairs were immersed for at least 2 h in a water bath.
3. The hairs were then immersed for 30 min in the test formulation and then each hair was rinsed for about 7 s under running water.
4. The hairs were left overnight (=12 h) to dry in air.
5. The force which was necessary in order to extend the treated hair by 15% was again measured as described above, after wetting with water.
6. The difference between the 15% extension forces before and after treatment with the test formulation was calculated and used as a measure of the improvement in the mechanical resistivity of the damaged hairs by the alkylguanidine compounds.

Assay [2] is described as follows: Determination of the protein loss of predamaged hair (extraction with Na lauryl ether sulfate, UV absorption at 295 nm). On the set-up: species or system human. The note with it: hair rinse of Tab. 3 with 2.0% active, pH 5.0, 30 min; predamaged hair (permanently waved and bleached); extraction with 8% Na lauryl ether sulfate 3 h at room temperature; at least three measurements. The source says: The more severely damaged the hair, e.g., by permanent waving or bleaching, the higher the concentration of water-soluble protein fragments/peptides in the hair which can be extracted with water or surfactants. Extraction with surfactants simulates the washing of the hair by means of a shampoo. Also during hair washing, damaged hair loses more peptides than healthy hair.
For illustration, the hair was predamaged. For this, the hair was permanently waved and bleached 1×each
The predamaged strands of hair (weight: about 4 g) were immersed in the test formulation (time of action: 30 min) and then rinsed off for 1 min under running tap water (T=35° C.).
They were then left to dry in the air for 12 hours.
Determination of the Protein Loss:
About 0.5 g of hair+about 15 ml of Na lauryl ether sulfate (8%) were shaken at room temperature for 3 h. The solution was subsequently decanted and centrifuged. The protein concentration of the solution was then determined photometrically by measurement of the UV absorption at 295 nm. A keratin hydrolysate was used as a standard (M=1000, Promois WK-H, Seiwa Kasei).

The values that follow come from US20040258652A1, “Hair treatment compositions and hair after-treatment compositions for protection against damage by chemical treatment and for the repair of already damaged hair comprising as active substances alkylguanidine compounds” (GOLDSCHMIDT AG, priority 2003, published 2004).

With `CC(=O)O.CCCCN(CCCC)C(=N)N` [HSP A where R^1 = C4; R^2 = C4; acetate, N,N-dibutylguanidinium acetate], the “Force 15%after force 15%before” value in assay [1] (Table 2B) amounted to 2.16 mN. Take `CC(O)C(=O)O.CCCCCCCCNC(=N)N` [HSP A where R^1 = H; R^2 = C8; lactate, octylguanidinium lactate]: the “Force 15%after force 15%before” value in assay [1] (Table 2B) was determined as 3.65 mN. In the case of `CC(=O)O.CCCCCCCCNC(=N)N` [HSP A where R^2 = C8, octylguanidinium acetate], in assay [2], the Protein loss is reported as 26.8 mg/g of hair. In assay [1] (Table 2A), the “Force 15%after force 15%before” value was 3.51 mN. For `CC(=O)O.CC(=O)O.N=C(N)NCCCCCCNC(=N)N` [hexane-1,6-diguanidinium acetate], the “Force 15%after force 15%before” value in assay [1] (Table 2B) was 3.45 mN.
